A short description of data set [1]: HPIC for determination of sodium metabisulfite as sulfite in stored formulations. The class given is physicochemical. Conditions: after 28 days at 60° C., senior formulation 1.1 mg/mL. The procedure:
Epinephrine formulations were diluted 1:100 (formulations with 1.67 mg/mL Na2S2O5), 1:50 (formulations with 0.95 mg/mL and 0.48 mg/mL Na2S2O5) and 1:25 (formulation with 0.16 mg/mL Na2S2O5) in water containing 0.37% formaldehyde. Chromatographic separation was conducted on a Dionex Ion chromatograph ICS3000. 50 μl sample were applied on a HPIC column (AS4aSC, 4 mm×250 mm Thermo Scientific) using a guard column (AG4aSC, 4 mm×50 mm Thermo Scientific). Chromatographic separation was conducted in Eluent A (1.3 mM sodium hydrogen carbonate and 1.4 mM sodium carbonate in water) at 30° C. over 20 min at a flow rate of 2 mL/min. Conductivity detection with suppressor technology was used at a cell temperature of 35° C.

The conditions of data set [2]: sulfonic acid derivative formed by reaction of epinephrine with sodium bisulfite; cited from earlier work.
The conditions of data set [3]: senior formulations 1.1 mg/mL, E:S 0.34, pH 3.9, 60° C., 28 days; vs epinephrine base.

Structures can show the parent of a compound that is named as a salt. Bounds are passed on as bounds.

As to `O=S([O-])S(=O)(=O)[O-].[Na+].[Na+]` [sodium metabisulfite], the figures for the “sodium metabisulfite starting content degraded” value in data set [1] (at E:S=1.2) and in data set [1] (at E:S=3) were above 70% and above 90%, respectively. Take `CNCC(c1ccc(O)c(O)c1)S(=O)(=O)O` (stereo not shown) [ESA, epinephrine sulfonic acid]: the biological activity entry in data set [2] is “biologically inactive”.

With `CNC[C@H](O)c1ccc(O)c(O)c1` [epinephrine tartrate], the D-enantiomer formation result in data set [3] is on record as “significantly reduced”.
